# From patent publication US20250276994A1, “CAP ANALOG FOR THE 5'-END OF EUKARYOTIC MESSENGER RNAS” (WESTFÄLISCHE WILHELMS-UNIVERSITÄT, priority 2021, published 2025)
# Tested on: HeLa cells
# Experiment: Cell viability after irradiation, MTT test
# Format: cell-based
# Settings: 365 nm 30 seconds or 405 nm 60 seconds; normalized to non-irradiated m7GG; single determination
# Experimental: 3×10^4 cells in HeLa cell media (100 μL) were transferred in one well of a 96 well-plate. After 24 h the cells were transfected with Metafectene® Pro (0.3 μL) in MEM Earle's media (4.7 μL) and modified mRNA (0.1 μg) in MEM Earle's media (5 μL) for 6 h at 37° C. in a total volume of 100 μL. For subsequent toxicity assays, the media containing the transfection reagent was removed and cells were incubated overnight in fresh serum-free HeLa cell media. Cellular lethality was checked using the LDH Cytotoxicity Detection Kit, cellular viability was checked using the Vybrant® MTT Cell Proliferation Assay Kit (A volume of 100 μL 0.04 M HCl in 2-propanol was used instead of SDS-HCl solution to dissolve the formazan.) and cellular proliferation was checked using the BrdU Cell Proliferation Assay Kit. In each case, 24 h after transfection, absorbance was measured photometrically using the Tecan Infinite® M1000 Pro according to the manufacturer's instructions.
# To evaluate the cell viability after irradiation, a MTT test was used as described above. HeLa cells were irradiated (5 V, 600 mA) with either 365 nm (m7GG 365, DMNB 365) or 405 nm (m7GG 405, DMNB 405) for 30 seconds (365 nm) or 60 seconds (405 nm). The values were normalized to the non-irradiated sample (m7GG).
smiles,measurement,value
"COc1cc(COC(=O)Nc2nc3c(c(=O)[nH]2)[n+](C)cn3[C@@H]2O[C@H](COP(=O)(O)CP(=O)(O)OP(=O)(O)OC[C@H]3O[C@@H](n4cnc5c(=O)[nH]c(N)nc54)C(O)C3O)C(O)C2O)c([N+](=O)[O-])cc1OC (stereo partly shown) [compound 12, P1-(N^2-(4,5-Dimethoxy-2-nitrobenzyl)oxycarbonyl-7-methylguanosin-5′-yl)-P3-guanosin-5′-yl 1,2-methylenetriphosphate]",cell viability (MTT),only slightly decreased
